What was measured:
FasRwt = FasRwt (Mycobacterium tuberculosis, UniProt O05858)
Mtb FasR = conditions: ref Mondino et al Mol Microbiol 2013 89:372; cited from earlier work

Chain of FasRwt (O05858 whole entry): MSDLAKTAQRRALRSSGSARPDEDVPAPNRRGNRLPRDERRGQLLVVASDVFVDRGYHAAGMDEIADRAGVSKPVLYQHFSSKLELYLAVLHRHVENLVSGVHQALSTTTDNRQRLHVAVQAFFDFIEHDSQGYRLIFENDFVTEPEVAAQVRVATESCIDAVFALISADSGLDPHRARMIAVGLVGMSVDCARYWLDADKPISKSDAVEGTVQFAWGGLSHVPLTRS

| SMILES | k, exponential decay rate of full-length FasR under trypsin proteolysis (FasRwt) | triggering of DNA-dissociation (Mtb FasR) |
| --- | --- | --- |
| CCCCCCCCCCCCCCCCCCCC(=O)SCCNC(=O)CCNC(=O)[C@H](O)C(C)(C)COP(=O)(O)OP(=O)(O)OC[C@H]1O[C@@H](n2cnc3c(N)ncnc32)[C@H](O)[C@@H]1OP(=O)(O)O [C20-CoA, arachidoyl-CoA] | 0.11 |  |
| CCCCCCCCCCCCCC(=O)O [C14, myristic acid] |  | ineffective at triggering DNA-dissociation |

— article PMC7382501 (Nature Communications, 2020)
